{
  "source": "patent US20240082373A1",
  "about": "“COMPOSITIONS FOR CHIMERIC ANTIGEN RECEPTOR T CELL THERAPY AND USES THEREOF” (priority 2017, published 2024)",
  "key": {"[1]": {"test": "Trafficking to and retention in lymph nodes (IVIS imaging)", "type": "in vivo, mice", "settings": "free FITC control", "description": "Based on the results of Example 2, it was next determined whether the amphiphilic ligand conjugate DSPE-PEG-FITC could coat antigen presenting cells in lymph nodes (LN) to prime FITC-CAR-T cells in vivo. To assess DSPE-PEG-FITC trafficking to the lymph node and retention and uptake by APCs, C57BIU6 mice received varying doses of DSPE-PEG-FITC. Specifically, inguinal LN, auxiliary LN and lilac LN were harvested 24 hours after administration of 2 nmol, 5 nmol, or 10 nmol doses of DSPE-PEG-FITC was into the tail-veil of the mice. Free FITC was used as control. Mice were sacrificed and LNs were removed at different time point for IVIS imaging (excitation 465 nm, emission 520 nm) to monitor LN retention of FITC signal.\nWhile FITC signal was almost lost at the lowest dose (2 nmol) after 4 days, the signal was retained for more than 21 days at high dose (10 nmol) of DSPE-PEG-FITC (FIG. 3A). Free FITC signal was lost in 24 hours (FIG. 3A)."}, "FITC-CAR-T": {"tested_on": "FITC-CAR-T", "test": "FITC-CAR-T proliferation in lymph nodes after vaccination (CTV-labeled cells)", "type": "in vivo, C57Bl/6 mice", "settings": "adjuvant alone, 25 ug", "description": "To assess whether DSPE-PEG-FITC accumulating on lymph node antigen presenting cells would lead to CAR T cell priming and how long this stimulatory effect would last for, at day 1, mice were administered PBS, c-di-GMP (25 ug), DSPE-PEG-FITC (10 nmol), or DSPE-PEG-FITC (10 nmol)+c-di-GMP (25 ug) into wildtype C57Bl/6 mice. After various time points, as indicated in the timeline in FIG. 7A, 2×10^6 CTV-labeled CAR-T cells were transferred into each mouse via tail-vein injection. CAR-T cells were titrated to be a mixture of CAR+ and CAR-cells at 1:1 ratio. After another 48 hours, mice were sacrificed and LNs were removed for FACS analysis."}, "[2]": {"settings": "mouse, in vivo", "text": "One concern was that repeated vaccination may elicit antibody against FITC when conjugated to DSPE-PEG, thus blocking its stimulation to CAR in lymph nodes."}},
  "data": [
    {"molecule": "fluorescein isothiocyanate [Free FITC]", "values": [
      {"measurement": "time in which FITC signal was lost in LN", "setting": "[1]", "result": "≤ 24", "unit": "h"}
    ]},
    {"molecule": "Nc1nc2c(ncn2[C@@H]2O[C@@H]3COP(=O)(O)O[C@H]4[C@@H](O)[C@H](n5cnc6c(=O)[nH]c(N)nc65)O[C@@H]4COP(=O)(O)O[C@H]3[C@H]2O)c(=O)[nH]1", "note": "[c-di-GMP, cyclic-di-GMP]", "values": [
      {"measurement": "proliferation of CAR-T cells in LN", "setting": "FITC-CAR-T", "result": "Minimal proliferation"}
    ]},
    {"molecule": "FITC-OVA: FITC conjugated to the carrier protein OVA (conjugate, UniProt P01012 2-386, looked up, FITC) Ovalbumin: GSIGAASMEFCFDVFKELKVHHANENIFYCPIAIMSALAMVYLGAKDSTRTQINKVVRFDKLPGFGDSIEAQCGTSVNVHSSLRDILNQITKPNDVYSFSLASRLYAEERYPILPEYLQCVKELYRGGLEPINFQTAADQARELINSWVESQTNGIIRNVLQPSSVDSQTAMVLVNAIVFKGLWEKAFKDEDTQAMPFRVTEQESKPVQMMYQIGLFRVASMASEKMKILELPFASGTMSMLVLLPDEVSGLEQLESIINFEKLTEWTSSNVMEERKIKVYLPRMKMEEKYNLTSVLMAMGITDVFSSSANLSGISSAESLKISQAVHAAHAEINEAGREVVGSAEAGVDAASVSEEFRADHPFLFCIKHIATNAVLFFGRCVSP", "values": [
      {"measurement": "antibody response against FITC", "setting": "[2]", "result": "no antibody response was observed"}
    ]}
  ]
}
